The NIST ThermoML archive (doi:10.1021/acs.jced.5b00259)
± gives the expanded uncertainty stated by the source.

How the values were obtained:
[1] = 100 kPa, Liquid
[2] = xn = mol fraction of the nth substance listed; details: 100 kPa, Liquid, x2 = 0

| SMILES | mass density ([1]; 293.15 K) [kg/m3] | viscosity ([1]; 293.15 K) [mPa·s] | mass density ([1]; 298.15 K) [kg/m3] | viscosity ([1]; 298.15 K) [mPa·s] | mass density ([1]; 303.15 K) [kg/m3] | viscosity ([1]; 303.15 K) [mPa·s] | mass density ([1]; 308.15 K) [kg/m3] | viscosity ([1]; 308.15 K) [mPa·s] | mass density ([1]; 313.15 K) [kg/m3] | viscosity ([1]; 313.15 K) [mPa·s] | mass density ([1]; 318.15 K) [kg/m3] | viscosity ([1]; 318.15 K) [mPa·s] | mass density ([1]; 323.15 K) [kg/m3] | viscosity ([1]; 323.15 K) [mPa·s] | mass density ([2]; 293.15 K) [kg/m3] | viscosity ([2]; 293.15 K) [mPa·s] | mass density ([2]; 298.15 K) [kg/m3] | viscosity ([2]; 298.15 K) [mPa·s] | mass density ([2]; 303.15 K) [kg/m3] | viscosity ([2]; 303.15 K) [mPa·s] | further results |
| --- | --- | --- | --- | --- | --- | --- | --- | --- | --- | --- | --- | --- | --- | --- | --- | --- | --- | --- | --- | --- | --- |
| CCOS(=O)(=O)[O-].CC[NH+]=C(N(C)C)N(C)C [2-ethyl-1,1,3,3-tetramethylguanidinium ethyl sulfate] | 1170.76 ± 1.5 | 673.4 ± 300 | 1167.24 ± 1.5 | 441.5 ± 170 | 1163.76 ± 1.5 | 302.5 ± 95 | 1160.28 ± 1.5 | 214.6 ± 54 | 1156.8 ± 1.4 | 157.2 ± 31 | 1153.33 ± 1.4 | 118.3 ± 18 | 1149.87 ± 1.4 | 91.22 ± 9.6 |  |  |  |  |  |  |  |
| CCCO [propan-1-ol] + CC[NH+]=C(N(C)C)N(C)C.O=S(=O)([N-]S(=O)(=O)C(F)(F)F)C(F)(F)F |  |  |  |  |  |  |  |  |  |  |  |  |  |  | 803.49 ± 0.43 | 2.164 ± 0.087 | 799.49 ± 0.44 | 1.948 ± 0.078 | 795.46 ± 0.45 | 1.707 ± 0.069 | mass density ([2]; 308.15 K): 791.39 ± 0.45 kg/m3; viscosity ([2]; 308.15 K): 1.525 ± 0.061 mPa·s; mass density ([2]; 313.15 K): 787.29 ± 0.46 kg/m3; viscosity ([2]; 313.15 K): 1.366 ± 0.055 mPa·s; mass density ([2]; 318.15 K): 783.14 ± 0.46 kg/m3; viscosity ([2]; 318.15 K): 1.228 ± 0.05 mPa·s; mass density ([2]; 323.15 K): 778.93 ± 0.47 kg/m3; viscosity ([2]; 323.15 K): 1.107 ± 0.045 mPa·s |
| CCO [ethanol] | 789.62 ± 0.46 | 1.177 ± 0.047 | 785.25 ± 0.47 | 1.071 ± 0.043 | 780.89 ± 0.47 | 0.978 ± 0.04 | 776.52 ± 0.48 | 0.895 ± 0.036 | 772.12 ± 0.49 | 0.822 ± 0.033 | 767.71 ± 0.49 | 0.756 ± 0.031 | 763.26 ± 0.5 | 0.698 ± 0.028 |  |  |  |  |  |  |  |
| CCO [ethanol] + CC[NH+]=C(N(C)C)N(C)C.O=S(=O)([N-]S(=O)(=O)C(F)(F)F)C(F)(F)F |  |  |  |  |  |  |  |  |  |  |  |  |  |  | 789.62 ± 0.46 | 1.177 ± 0.047 | 785.25 ± 0.47 | 1.071 ± 0.043 | 780.89 ± 0.47 | 0.978 ± 0.04 | mass density ([2]; 308.15 K): 776.52 ± 0.48 kg/m3; viscosity ([2]; 308.15 K): 0.895 ± 0.036 mPa·s; mass density ([2]; 313.15 K): 772.12 ± 0.49 kg/m3; viscosity ([2]; 313.15 K): 0.822 ± 0.033 mPa·s; mass density ([2]; 318.15 K): 767.71 ± 0.49 kg/m3; viscosity ([2]; 318.15 K): 0.756 ± 0.031 mPa·s; mass density ([2]; 323.15 K): 763.26 ± 0.5 kg/m3; viscosity ([2]; 323.15 K): 0.698 ± 0.028 mPa·s |
| CCCO [propan-1-ol] | 803.49 ± 0.43 | 2.164 ± 0.087 | 799.49 ± 0.44 | 1.948 ± 0.078 | 795.46 ± 0.45 | 1.707 ± 0.069 | 791.39 ± 0.45 | 1.525 ± 0.061 | 787.29 ± 0.46 | 1.366 ± 0.055 | 783.14 ± 0.46 | 1.228 ± 0.05 | 778.93 ± 0.47 | 1.107 ± 0.045 |  |  |  |  |  |  |  |
| CCO [ethanol] + CCOS(=O)(=O)[O-].CC[NH+]=C(N(C)C)N(C)C |  |  |  |  |  |  |  |  |  |  |  |  |  |  | 789.62 ± 0.46 | 1.177 ± 0.047 | 785.25 ± 0.47 | 1.071 ± 0.043 | 780.89 ± 0.47 | 0.978 ± 0.04 | mass density ([2]; 308.15 K): 776.52 ± 0.48 kg/m3; viscosity ([2]; 308.15 K): 0.895 ± 0.036 mPa·s; mass density ([2]; 313.15 K): 772.12 ± 0.49 kg/m3; viscosity ([2]; 313.15 K): 0.822 ± 0.033 mPa·s; mass density ([2]; 318.15 K): 767.71 ± 0.49 kg/m3; viscosity ([2]; 318.15 K): 0.756 ± 0.031 mPa·s; mass density ([2]; 323.15 K): 763.26 ± 0.5 kg/m3; viscosity ([2]; 323.15 K): 0.698 ± 0.028 mPa·s |
| CC[NH+]=C(N(C)C)N(C)C.O=S(=O)([N-]S(=O)(=O)C(F)(F)F)C(F)(F)F | 1414.89 ± 12 | 74.61 ± 5.5 | 1410.03 ± 12 | 58.86 ± 2.3 | 1405.19 ± 12 | 47.27 ± 2.3 | 1400.38 ± 12 | 38.71 ± 1.8 | 1395.59 ± 12 | 32.2 ± 1.5 | 1390.8 ± 12 | 27.09 ± 1.3 | 1386.03 ± 12 | 23.14 ± 1.1 |  |  |  |  |  |  |  |
| CCCO [propan-1-ol] + CCOS(=O)(=O)[O-].CC[NH+]=C(N(C)C)N(C)C |  |  |  |  |  |  |  |  |  |  |  |  |  |  | 803.49 ± 0.43 | 2.164 ± 0.17 | 799.49 ± 0.44 | 1.948 ± 0.16 | 795.46 ± 0.45 | 1.707 ± 0.14 | mass density ([2]; 308.15 K): 791.39 ± 0.45 kg/m3; viscosity ([2]; 308.15 K): 1.525 ± 0.12 mPa·s; mass density ([2]; 313.15 K): 787.29 ± 0.46 kg/m3; viscosity ([2]; 313.15 K): 1.366 ± 0.11 mPa·s; mass density ([2]; 318.15 K): 783.14 ± 0.46 kg/m3; viscosity ([2]; 318.15 K): 1.228 ± 0.099 mPa·s; mass density ([2]; 323.15 K): 778.93 ± 0.47 kg/m3; viscosity ([2]; 323.15 K): 1.107 ± 0.089 mPa·s |
